This is an account of results in patent US20200325487A1, “A COM[…] FOR REDUCING RANDOM I[…] WHEN TR[…]” (UNIVERSITEIT LEIDEN, priority 2017, published 2020).

Data set [1] deals with wild type, ku80, mre11-2 and ku80mre11-2 mutant seedlings. Put plainly: Assays for sensitivity to bleomycin and methyl methane sulfonate (MMS). It is filed as in vivo, Arabidopsis thaliana. The following applies: ku80mre11-2 double mutant, 0.02, 0.05 μg/ml bleomycin or 0.005%, 0.01% MMS; for fresh weight of double mutant plants in comparison with wild type and each of the single mutants: 10-days-old plate-grown plants; for growth phenotype of double mutant compared with each of the single mutants: scored 2 weeks after germination. The protocol: Seeds of wild type, ku80, mre11-2 and ku80mre11-2 mutants were surface-sterilized as described (Weijers et al. 2001) and germinated on solid % MS medium without additions or containing 0.02 μg/ml or 0.05 μg/ml bleomycin (Sigma), 0.005% (v/v), 0.007% or 0.01% MMS (Sigma) and photographed after 2 weeks. After 10 days growth, the fresh weight (compared with controls) was determined by weighing the seedlings in batches of 20 in duplicate. Statistical analyses were performed using Prism version 5 (GraphPad Software Inc.).

Data set [2] concerns root tips of Arabidopsis seedlings (wild type, ku80, mre11-2, ku80mre11-2). The experiment in a line: Cell death assay (propidium iodide staining of root tips). It is filed as in vivo, Arabidopsis thaliana. As to conditions: 0.05 μg/ml bleomycin for 1 day and 4 days; 4-d-old seedlings; more cell death in ku80mre11-2 double mutant. The protocol: Four days old seedlings on MS-agar plates were transferred to new MS-plates with DNA damaging agents. After one or four days treatments, the seedlings were placed in propidium iodide solution (PI, Sigma-Aldrich, 5 μg/ml in water) for 1 min and rinsed three times with water. Root tips were then transferred to slides in a drop of water and covered with a cover slip for observation under the fluorescence microscope.

Regarding `COS(C)(=O)=O` [MMS, Methyl Methane Sulfonate], in data set [1], the “fresh weight of double mutant plants in comparison with wild type and each of the single mutants” value was “dramatically reduced”; the “growth phenotype of double mutant compared with each of the single mutants” value is “grew more slowly and developed fewer true leaves”.

bleomycin: the “cell death in the root meristem (PI staining)” value in data set [2] is “caused cell death in the root meristem of both wild type and the mutants”. Besides, in data set [1], the “fresh weight of double mutant plants in comparison with wild type and each of the single mutants” value is “dramatically reduced”; the “growth phenotype of double mutant compared with each of the single mutants” value is “grew more slowly and developed fewer true leaves”.
